In patent US9469645B2, “Compounds and compositions for the treatment of parasitic diseases” (Novartis AG, priority 2009, dated 2016):

Assays:
3D7 P. falciparum strain = test: parasite proliferation assay in infected red blood cells (SYBR Green I); assay type: cell-based, Plasmodium falciparum; details: Plasmodium falciparum, 3D7, Erythrocyte, 3D7 strain; read-out: EC50 3D7 strain
Procedure, shortened: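 P. falciparum 3D7 grown in O+ human erythrocytes to 3–8% parasitemia and exposed to compounds. Proliferation read as the increase in parasite DNA. Detection used SYBR Green I in saponin/triton-X/EDTA lysis buffer, with overnight lysis at room temperature.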

W2 strain = test: parasite proliferation assay in infected red blood cells (SYBR Green I), W2 strain; assay type: cell-based; details: Erythrocyte
From the text: Compounds of the invention can be assayed to measure their capacity to inhibit proliferation of parasitemia in infected red blood cells. The proliferation is quantified by the addition of SYBR Green I (INVITROGEN)® dye which has a high affinity for double stranded DNA.

| SMILES | EC50 (3D7 P. falciparum strain) [nM] | EC50 (W2 strain) [nM] | EC50 (W2 strain; Plasmodium falciparum) [nM] |
| --- | --- | --- | --- |
| Cc1ccc(Nc2c(-c3cccc(Cl)c3)nc3n2CCN(C(=O)C(C)(C)N)C3)cc1 [Compound 397] | 2450 | 1670 |  |
| Cc1ccc(Nc2c(-c3ccc(F)cc3)nc3n2CC(=O)NC3(C)C)cc1F [Compound 598] | 40 |  | 74 |
| Cc1ccc(Nc2c(-c3cccc(F)c3)nc3n2C(C)(C)CN(C(=O)[C@@H](O)Cc2ccccc2)C3)cc1 [Compound 599] | 120 |  | 134 |
| Cc1cc(Nc2c(-c3ccc(F)cc3)nc3n2CCN(C(=O)CN)C3(C)C)nn1C [Compound 600] | 70 |  | 50 |
| CCn1nccc1Nc1c(-c2ccc(F)cc2)nc2n1CCN(C(=O)CN)C2(C)C [Compound 601] | 3960 |  | 4120 |
| CC(C)[C@@H]1c2nc(-c3ccc(F)cc3)c(Nc3ccc(Cl)c(F)c3)n2CCN1C(=O)CN [Compound 602] | 170 |  | 204 |
| Cc1ccc(Nc2c(-c3cccc(F)c3)nc3n2CC(=O)NC3(C)C)cc1F [Compound 603] | 50 |  | 73 |
| Cc1ccc(Nc2c(-c3cccc(F)c3)nc3n2CC(=O)NC3(C)C)cc1Cl [Compound 604] | 40 |  | 49 |
| CC1(C)NC(=O)Cn2c1nc(-c1cccc(F)c1)c2Nc1ccc(Cl)c(F)c1 [Compound 605] | 40 |  | 57 |
| CN1CCn2c(nc(-c3ccc(F)cc3)c2Nc2ccc(F)cc2)C1(C)C [Compound 606] | 20 |  | 28 |
| CN1CCn2c(nc(-c3ccc(F)cc3)c2Nc2ccc(Cl)cc2)C1(C)C [Compound 607] | 30 |  | 48 |
| CN1Cc2nc(-c3ccc(F)cc3)c(Nc3ccc(Cl)cc3)n2C(C)(C)C1 [Compound 608] | 6910 |  | 5560 |
| CN1Cc2nc(-c3ccc(F)cc3)c(Nc3ccc(Cl)c(F)c3)n2C(C)(C)C1 [Compound 609] | 7020 |  | 4930 |
| Cc1cc(Nc2c(-c3ccc(F)cc3)nc3n2C(C)(C)CN(C)C3)ccc1Cl [Compound 610] | 6250 |  | 4900 |
| CN1Cc2nc(-c3ccc(F)cc3)c(Nc3ccc(F)c(F)c3)n2C(C)(C)C1 [Compound 611] | 7670 |  | 5760 |
| Cc1ccc(Nc2c(-c3ccc(F)cc3)nc3n2C(C)(C)CN(C)C3)cc1C#N [Compound 612] | 6900 |  | 6080 |
| COc1ccc(CN2Cc3nc(-c4ccc(F)cc4)c(Nc4ccc(Cl)c(F)c4)n3C(C)(C)C2=O)cc1 [Compound 613] | 6270 |  | 5710 |
| COc1ccc(CN2Cc3nc(-c4ccc(F)cc4)c(Nc4ccc(Cl)c(C)c4)n3C(C)(C)C2=O)cc1 [Compound 614] | 5020 |  | 4520 |
| CN1Cc2nc(-c3ccc(F)cc3)c(Nc3ccc(Cl)c(F)c3)n2C(C)(C)C1=O [Compound 615] | 6410 |  | 5610 |
| Cc1cc(Nc2c(-c3ccc(F)cc3)nc3n2C(C)(C)C(=O)N(C)C3)ccc1Cl [Compound 616] | 5720 |  | 4560 |

| SMILES | EC50 (3D7 P. falciparum strain) [nM] | EC50 (W2 strain) [nM] | EC50 (W2 strain; Plasmodium falciparum) [nM] |
| --- | --- | --- | --- |
| Cc1cc(Nc2c(-c3ccc(F)cc3)nc3n2C(C)(C)C(=O)N(C)C3)ccc1F [Compound 617] | 6330 |  | 6880 |
| CC1(C)C(=O)NCc2nc(-c3ccc(F)cc3)c(Nc3ccc(Cl)c(F)c3)n21 [Compound 618] | 2130 |  | 2890 |
| Cc1cc(Nc2c(-c3ccc(F)cc3)nc3n2C(C)(C)C(=O)NC3)ccc1Cl [Compound 619] | 570 |  | 713 |
| CC1(C)CN(C(=O)CN)Cc2nc(-c3cccc(F)c3)c(Nc3ccc(Cl)cc3)n21 [Compound 620] | 40 |  | 41 |
| CC1(C)CN(C(=O)CN)Cc2nc(-c3cccc(F)c3)c(Nc3ccc(F)cc3)n21 [Compound 621] | 40 |  | 45 |
| CC1(C)CN(C(=O)CN)Cc2nc(-c3cccc(F)c3)c(Nc3ccc(F)c(F)c3)n21 [Compound 622] | 100 |  | 121 |
| CC1(C)CN(C(=O)CN)Cc2nc(-c3cccc(F)c3)c(Nc3ccc(Cl)c(F)c3)n21 [Compound 623] | 30 |  | 32 |
| CC1(C)CN(C(=O)CN)Cc2nc(-c3cccc(F)c3)c(Nc3ccc(F)c(Cl)c3)n21 [Compound 624] | 100 |  | 167 |
| Cc1cc(Nc2c(-c3cccc(F)c3)nc3n2C(C)(C)CN(C(=O)CN)C3)ccc1F [Compound 625] | 170 |  | 194 |
| Cc1cc(Nc2c(-c3cccc(F)c3)nc3n2C(C)(C)CN(C(=O)CN)C3)ccc1Cl [Compound 626] | 20 |  | 17 |
| CN1CCn2c(nc(-c3ccc(F)cc3)c2Nc2ccc(F)c(Cl)c2)C1(C)C [Compound 627] | 170 |  | 194 |
| Cc1cc(Nc2c(-c3ccc(F)cc3)nc3n2CCN(C(=O)C(C)(C)N)C3)ccc1F [Compound 628] | 33 |  | 40 |
| Cc1cc(Nc2c(-c3ccc(F)cc3)nc3n2CCN(C(=O)C(C)(C)N)C3)ccc1Cl [Compound 629] | 17 |  | 23 |
| Cc1ccc(Nc2c(-c3ccc(F)cc3)nc3n2CCN(C(=O)C(C)(C)N)C3)cc1C#N [Compound 630] | 35 |  | 85 |
| Cc1ccc(Nc2c(-c3ccc(F)cc3)nc3n2CCN(C(=O)C(C)(C)N)C3)cc1F [Compound 631] | 49 |  | 62 |
| Cc1ccc(Nc2c(-c3ccc(F)cc3)nc3n2CCN(C(=O)C(C)(C)N)C3)cc1Cl [Compound 632] | 15 |  | 16 |
| CC(C)(N)C(=O)N1CCn2c(nc(-c3ccc(F)cc3)c2Nc2ccc(C(F)(F)F)c(Cl)c2)C1 [Compound 633] | 528 |  | 331 |
| CC(C)(N)C(=O)N1CCn2c(nc(-c3ccc(F)cc3)c2Nc2ccc(F)c(C(F)(F)F)c2)C1 [Compound 634] | 467 |  | 447 |
| CC(C)(N)C(=O)N1CCn2c(nc(-c3ccc(F)cc3)c2Nc2ccc(C#N)c(C(F)(F)F)c2)C1 [Compound 635] | 940 |  | 1760 |
| CC(C)(N)C(=O)N1CCn2c(nc(-c3ccc(F)cc3)c2Nc2ccc(F)c(C#N)c2)C1 [Compound 636] | 210 |  | 183 |

| SMILES | EC50 (3D7 P. falciparum strain) [nM] | EC50 (W2 strain) [nM] | EC50 (W2 strain; Plasmodium falciparum) [nM] |
| --- | --- | --- | --- |
| Cc1ccc(Nc2c(-c3ccc(F)cc3)nc3n2CCN(C(=O)C(C)(C)N)C3)cc1C [Compound 637] | 27 |  | 26 |
| Cc1cccc(Nc2c(-c3ccc(F)cc3)nc3n2CCN(C(=O)C(C)(C)N)C3)c1 [Compound 638] | 65 |  | 68 |
| CC(C)(N)C(=O)N1CCn2c(nc(-c3ccc(F)cc3)c2Nc2cccc(Cl)c2)C1 [Compound 639] | 82 |  | 93 |
| CC(C)(N)C(=O)N1CCn2c(nc(-c3ccc(F)cc3)c2Nc2cccc(OC(F)(F)F)c2)C1 [Compound 640] | 3950 |  | 4510 |
| CCc1ccc(Nc2c(-c3ccc(F)cc3)nc3n2CCN(C(=O)C(C)(C)N)C3)cc1 [Compound 641] | 799 |  | 1280 |
| CC(C)(N)C(=O)N1CCn2c(nc(-c3ccc(F)cc3)c2Nc2ccc(OC(F)F)cc2)C1 [Compound 642] | 2010 |  | 2500 |
| CC(C)(N)C(=O)N1CCn2c(nc(-c3ccc(F)cc3)c2Nc2ccc(OC(F)(F)F)cc2)C1 [Compound 643] | 2800 |  | 2170 |
| CC(C)(N)C(=O)N1CCn2c(nc(-c3ccc(F)cc3)c2Nc2cc(Cl)cc(Cl)c2)C1 [Compound 644] | 310 |  | 490 |
| CC1(C)N=C2c3nc(-c4ccc(F)cc4)c(Nc4ccc(F)c(F)c4)n3CCN2C1=O [Compound 645, 8-(3,4-difluorophenylamino)-9-(4-fluorophenyl)-2,2-dimethyl-5,6-dihydrodiimidazo[1,2-a:2′,1′-c]pyrazin-3 (2H)-one] | 5130 |  | 7600 |
| CC1(C)NC2c3nc(-c4ccc(F)cc4)c(Nc4ccc(F)c(F)c4)n3CCN2C1=O (stereo not drawn) [Compound 646, 8-(3,4-difluorophenylamino)-9-(4-fluorophenyl)-2,2-dimethyl-1,2,5,6-tetrahydrodiimidazo[1,2-a:2′,1′-c]pyrazin-3(10bH)-one] | 5680 |  | 6130 |
| CC1(C)c2nc(-c3ccc(F)cc3)c(Nc3ccc(-c4ccccc4)cc3)n2CCN1C(=O)CN [Compound 647] | 279 |  | 250 |
| CCc1ccc(Nc2c(-c3ccc(F)cc3)nc3n2CCN(C(=O)CN)C3(C)C)cc1 [Compound 648] | 9 |  | 8 |
| CC1(C)c2nc(-c3ccc(F)cc3)c(Nc3ccc(OC(F)(F)F)cc3)n2CCN1C(=O)CN [Compound 649] | 24 |  | 18 |
| CC1(C)c2nc(-c3ccc(F)cc3)c(Nc3cccc(OC(F)(F)F)c3)n2CCN1C(=O)CN [Compound 650] | 12 |  | 9 |
| CC1(C)c2nc(-c3ccc(F)cc3)c(Nc3cccc(Cl)c3)n2CCN1C(=O)CN [Compound 651] | 8 |  | 5 |
| CC1(C)c2nc(-c3ccc(F)cc3)c(Nc3cccc(C(F)(F)F)c3)n2CCN1C(=O)CN [Compound 652] | 19 |  | 12 |
| CC1(C)c2nc(-c3ccc(F)cc3)c(Nc3cccc(C#N)c3)n2CCN1C(=O)CN [Compound 653] | 6 |  | 9 |
| Cc1ccc(Nc2c(-c3ccc(F)cc3)nc3n2CCN(C(=O)CN)C3(C)C)cc1C [Compound 654] | 5 |  | 6 |
| CC1(C)c2nc(-c3ccc(F)cc3)c(Nc3ccc(C#N)c(C(F)(F)F)c3)n2CCN1C(=O)CN [Compound 655] | 17 |  | 20 |
| Cc1cc(C)cc(Nc2c(-c3ccc(F)cc3)nc3n2CCN(C(=O)CN)C3(C)C)c1 [Compound 656] | 6 |  | 7 |
